Source: patent US20090317455A1, “REVERSE TARGETING LIPID VESICLE” (ASTELLAS PHARMA INC., priority 2006, published 2009)

Settings: 10 mg/kg adriamycin, intravenous (tail vein) on Days 8, 10 and 12; compared with Vehicle; FIG. 1(A)
Method: The presence of weight loss as a side effect of adriamycin encapsulated in the liposome was assessed. […] Each of the drugs was intravenously (tail vein) administered to each mouse group on Days 8, 10 and 12 following the sensitization day (Day 0) (total of three doses). […] The 10 mg/kg (weight) adriamycin is a dose that gives medicinal benefits as a cancer chemotherapeutic agent.
Meanwhile, weight loss as a side effect was also assessed.
Each of the drugs was intravenously (tail vein) administered to each mouse group on Days 8, 10 and 12 following the sensitization day (Day 0) (total of three doses).

In the case of COc1cccc2c1C(=O)c1c(O)c3c(c(O)c1C2=O)C[C@@](O)(C(=O)CO)C[C@@H]3O[C@H]1C[C@H](N)[C@H](O)[C@H](C)O1 [adriamycin], the “weight loss as a side effect” value is reported as “obvious weight loss”.
